The test system of experiment [1] is toxic hepatitis modelled by combined administration of dichloroethane and acetaminophen. Briefly: Toxic hepatitis caused by dichloroethane and acetaminophen (300 and 250 mg/kg), treatment with derivative No. 4. The experiment is classed as in vivo, laboratory rats. The note with it: for Cytochrome B5 / Cytochrome P450 / Glycogen / Reduced glutathione: liver. The procedure:
The efficacy of derivative No. 4 on additional parameters was studied in laboratory rats.
For the modeling of toxic hepatitis, the combined administration of dichloroethane and acetaminophen in doses of 300 and 250 mg/kg, respectively, was used. After 10 days all experimental animals confirmed the presence of toxic hepatitis according to the morphological pattern of the liver. In the untreated control group, by the 10th day of the study, 4 animals out of 10 died.
From that time, for 10 days, the experimental animals were administered, once a day, derivative No. 4 (50 mg/kg, intragastrically in starch mucus) or derivative No. 4 (10 mg/kg, IV, into the tail vein).

For experiment [2] the test system is unchanged. Briefly: Combined effect of subject compounds and known hepatic drugs, toxic hepatitis by dichloroethane and acetaminophen (500 and 500 mg/kg). Type of experiment: in vivo. The note with it: untreated control 10. The procedure: Also, the combined effect of the subject compounds and known drugs for the treatment of hepatic diseases was examined.
For the modeling of toxic hepatitis, the combined administration of dichloroethane and acetaminophen in doses of 500 and 500 mg/kg, respectively, was used. After 10 days all experimental animals confirmed the presence of toxic hepatitis according to the morphological pattern of the liver.

In experiment [3] the test system is Acute toxic hepatitis in rats induced by carbon tetrachloride (CCl4). Briefly: Hepatoprotective activity in rats with acute toxic hepatitis induced by CCl4. Type of experiment: in vivo, Wistar rats. The note with it: 25 mg/kg; for Survivability of the animals by day 28: Wistar rats; for Body weight of the animals by the 20th day: surviving animals. The procedure:
The animals were in standard housing conditions under natural light conditions, with free access to water and food. Acute toxic hepatitis in rats was induced by means of intragastric administration of 50% solution of carbon tetrachloride (CCl 4) in olive oil at a dose of 1 ml/kg for 6 days. […]
The tested preparations were administered orally in the form of a suspension in olive oil once a day after the formation of the model pathology or intravenously at a dose of 25 mg/kg. The weight dynamics of the rats were determined on Sartorius scale.

Experiment [4] concerns patients with toxic liver damage, alcoholic hepatitis, alcoholic liver disease (fatty hepatosis), alcoholic liver cirrhosis. Briefly: Efficacy of derivatives No. 1 and No. 2 in patients with liver disease (decrease in ALT, ASAT, GGTP). The experiment is classed as in vivo, patients (men and women). The note with it: of 30 patients. The source says:
The study of the efficacy of derivatives No. 1 and No. 2 was additionally carried out with the participation of patients (men and women aged 25 to 60 years) with the following diagnoses: toxic liver damage, alcoholic hepatitis, alcoholic liver disease (fatty hepatosis), alcoholic liver cirrhosis.
Inclusion criteria: increased levels of alanine aminotransferase (ALT), aspartate aminotransferase (ASAT), gamma glutaminetransferase (GGTP) at least 2 times the upper limit of the normal value.
Patients of the experimental group (30 persons) adhibited derivative No. 1 in the form of capsules containing 250 mg of the drug in a total dose of 1000 mg/day.
Patients of the control group (9 persons) adhibited placebo (capsules filled with chalk).
Patients of the experimental group (30 persons) adhibited derivative No. 2 in the form of lyophilisate for IV injection containing 50 mg of the drug in a total dose of 300 mg/day.
Patients of the control group (10 persons), were administered a 0.9% solution of NaCl as a placebo.

The mark [5] stands for this setting: Enteral administration, 50 mg/kg intragastrically once a day, day 10.
[6] abbreviates: Parenteral administration, 10 mg/kg IV once a day, day 10.
[7] abbreviates: Intraventricular administration, once a day.
[8] abbreviates: capsules 250 mg, total dose 1000 mg/day, control 1 of 9.
[9] abbreviates: lyophilisate for IV injection, total dose 300 mg/day, control 1 of 10.

This is an account of results in patent US10307424B2, “Drug with hepatoprotective activity” (priority 2015, dated 2019).

For the compound `NC(CO)(CO)CO.O=C1NC(O)(O)C(=NO)C(=O)N1c1ccc(Br)cc1` [Derivative 4], in experiment [1] (setting [5]), the “-SH-group” value is recorded as 900 ± 50 μmol/100 ml, the ALP came out at 0.73 ± 0.09 μkat/l, the ALT is reported as 0.54 ± 0.08 μkat/l and the ASAT was 0.72 ± 0.06 μkat/l. In experiment [1] (setting [5]), the Body weight was determined as 180 ± 15 g; the “Bromsulfalein, at the 10th minute after the introduction” value was 19.3 ± 1.1 mg %; the Ceruloplasmin stood at 520 ± 50 mg/L; the ChE stood at 2.1 ± 0.2 µmol/g/min. In experiment [1] (setting [5]), the Cholesterol worked out at 1.58 ± 0.21 mmol/L, the Glucose stood at 4.5 ± 0.4 mmol/L, the Hexenalum sleep is reported as 27.0 ± 1.5 min and the LDH came to 6.82 ± 0.34 mmol/h/L. In addition, in experiment [1] (setting [5]), the Prothrombin time was determined as 43 ± 5 s, the Timole test is recorded as 2.86 ± 0.44 units of turbidity, the Total lipids was determined as 3.2 ± 0.1 g/L and the Total protein was 52 ± 5 g/L. In experiment [1] (setting [5]), the “Cytochrome B5” value is on record as 0.54 ± 0.07 mmol/mg protein ×10^−4, the “Cytochrome P450” value worked out at 0.98 ± 0.06 mmol/mg protein ×10^−4, the Glycogen turned out to be 1600 ± 100 mg % and the Reduced glutathione was determined as 165 ± 10 mg %. In experiment [1] (setting [6]), the “-SH-group” value is reported as 640 ± 50 μmol/100 ml, the ALP is 0.82 ± 0.12 μkat/l, the ALT stood at 0.69 ± 0.06 μkat/l and the ASAT is 0.76 ± 0.08 μkat/l. Moreover, in experiment [1] (setting [6]), the Body weight was 185 ± 5 g; the “Bromsulfalein, at the 10th minute after the introduction” value is on record as 23.0 ± 1.6 mg %; the Ceruloplasmin worked out at 580 ± 80 mg/L; the ChE was determined as 2.2 ± 0.2 µmol/g/min. In addition, in experiment [1] (setting [6]), the Cholesterol amounted to 1.70 ± 0.26 mmol/L, the Glucose was 4.6 ± 0.2 mmol/L, the Hexenalum sleep came to 29.5 ± 1.5 min and the LDH came out at 8.24 ± 0.35 mmol/h/L. Moreover, in experiment [1] (setting [6]), the Timole test is 3.22 ± 0.53 units of turbidity, the Total lipids is 2.9 ± 0.2 g/L, the Total protein is 48 ± 4 g/L and the “Cytochrome B5” value is 0.68 ± 0.04 mmol/mg protein ×10^−4. In experiment [1] (setting [6]), the “Cytochrome P450” value is 1.12 ± 0.03 mmol/mg protein ×10^−4, the Glycogen came to 1500 ± 200 mg % and the Reduced glutathione is listed as 170 ± 10 mg %. In addition, the Death of animals entry in experiment [1] (enterally or parenterally injected, untreated control: 4 animals out of 10 died by the 10th day) is recorded as “not a single animal died”. In experiment [2], the “Survivability by the 10th day” value came to 40%.

For `NCCCO.O=C1NC(O)(O)C(=NO)C(=O)N1c1ccc(Br)cc1` [Derivative 5], the “Survivability of the animals by day 28” value in experiment [3] (Intravenous administration) stood at 60%; in experiment [3] (setting [7]), 61%. Further, the “Body weight of the animals by the 20th day” value (“Body weight of the animals” below) in experiment [3] (Intravenous administration) was determined as 168 ± 7%; in experiment [3] it was 161 ± 9%.

Take `C[C@H](CCC(=O)O)[C@H]1CC[C@H]2[C@@H]3[C@@H](O)C[C@@H]4C[C@H](O)CC[C@]4(C)[C@H]3CC[C@]12C` [Ursodeoxycholic acid, ursodeoxycholic acid, reference compound]: in experiment [2], the “Survivability by the 10th day” value is listed as 20%.

`O=C1NC(O)(O)C(=NO)C(=O)N1c1ccc(Br)cc1` [Derivative 1, 3-(4-bromophenyl)-6,6-dihydroxy-5-hydroxyiminohexahydro-2,4-pyrimidinedione]: in experiment [3] (Intravenous administration), the “Survivability of the animals by day 28” value is reported as 57% and the “Body weight of the animals” value is 171 ± 5%. Also, the “Survivability of the animals by day 28” value in experiment [3] (once a day) came to 59%. Also, in experiment [4] (setting [8]), the “The number of patients in the group with a decrease in ALT by 30% or more” value was determined as 23 and the “The number of patients in the group with a decrease in ASAT by 30% or more” value worked out at 23. The “The number of patients in the group with a decrease in GGTP by 30% or more” value in experiment [4] (capsules 250 mg, total dose 1000 mg/day, control 2 of 9) turned out to be 25. Besides, the “Survivability by the 10th day” value in experiment [2] worked out at 40%.

On to `O=C1NC(O)(O)C(=N[O-])C(=O)N1c1ccc(Br)cc1.[Na+]` [Derivative 2], for which, in experiment [4] (setting [9]), the “The number of patients in the group with a decrease in ALT by 30% or more” value is 17 and the “The number of patients in the group with a decrease in ASAT by 30% or more” value amounted to 19. The “The number of patients in the group with a decrease in GGTP by 30% or more” value in experiment [4] (lyophilisate for IV injection, total dose 300 mg/day, control 2 of 10) stood at 25. In experiment [2], the “Survivability by the 10th day” value worked out at 40%.

For the compound `C[S+](CC[C@H](N)C(=O)[O-])C[C@H]1O[C@@H](n2cnc3c(N)ncnc32)[C@H](O)[C@@H]1O` (some centres unmarked) [Prototype, S-Adenosyl methionine-ademetionine, reference compound], the “Survivability of the animals by day 28” value in experiment [3] (Intravenous administration) was 48%; in experiment [3] (setting [7]), 46%. Besides, the “Body weight of the animals” value is listed as 159 ± 4% in experiment [3] (Intravenous administration) and 160 ± 4% in experiment [3]. For the same compound, the “Survivability by the 10th day” value in experiment [2] stood at 30%.
